The target in assay [1] is T1, recombinant RORγ Ligand Binding Domain (LBD) protein (Homo sapiens, UniProt P51449).
T1 construct: 6×His; GST
T1 sequence (P51449 269-508 limits assumed): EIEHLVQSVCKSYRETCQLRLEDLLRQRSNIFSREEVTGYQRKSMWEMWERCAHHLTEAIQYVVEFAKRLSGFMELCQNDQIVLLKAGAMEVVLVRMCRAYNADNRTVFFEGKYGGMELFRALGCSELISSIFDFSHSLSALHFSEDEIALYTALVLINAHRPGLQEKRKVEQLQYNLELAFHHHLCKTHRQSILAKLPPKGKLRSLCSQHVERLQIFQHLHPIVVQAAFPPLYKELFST
Description: Radio-Ligand RORγ Binding Assay (Assay 1). To be noted: cell-free competition with 25-hydroxy[26,27-3H]-cholesterol; read-out: RORγ Binding Ki Range* (nM) (Assay 1). As for the experimental part:
Radio-Ligand RORγ Binding Assay (Assay 1)
The plate was shaken at 700 rpm for 20 min and incubated for 10 min at rt, after which 40 μL of poly-Lys YSi SPA beads (PerkinElmer, Cat. # RPNQ0010) were added to achieve 50 μg of the beads per well. The plate was incubated on an orbital shaker for 20 min and then for 10 min without agitation at rt. SPA signal for tritium beta radiation was registered on PerkinElmer Microbeta plate reader.

The test system of assay [2] is IL-17A production. As to the kind of experiment: Human Whole Blood Assay (Assay 3). It is filed as cell-based. To be noted: IL-17A, 50% blood/media, CytoStim, 48 h, read-out: 50% Human Whole Blood Assay IC50, nM* (Assay 3). As for the experimental part: Human Whole Blood Assay (Assay 3)
Compounds of the invention were tested in the human whole blood assay to measure their effects on IL-17A production as determined by cytokine secretion into 50% blood/media supernatant. Mixtures of sodium heparinized whole blood (isolated from healthy human donors) and the T cell activator CytoStim, in the presence or absence of compound, were plated in sterilized, tissue culture-treated 24-well plates. Specifically, the mixtures in each well were as follows: (1) 500 μL of whole blood, (2) 250 μL of compound diluted into RPMI-1640 media containing 10% HyClone™ FCS (Thermo Fisher Scientific, Waltham, Mass.), Gibco® Pen/Strep and Gibco® NEAA (Life Technologies, Grand Island, N.Y.), and (3) 250 μL of CytoStim (Miltenyi Biotech, Germany) diluted to a final concentration of 10 μL/mL in complete cell culture medium.
IL-17A cytokine expression was determined using 25 μL of the transferred supernatant diluted with 25 μL of Diluent 43 from the Human IL-17A V-PLEX™ kit (cat. # K151RFD-4, Meso Scale Discovery, Rockville, Md.). The assay was performed according to the manufacturer's instructions using included reagents. The IL-17A V-PLEX™ plates were read using the Meso Scale Discovery Imager (Model 1200).

In assay [3] the target is T2, full-length RORγt in Jurkat cells (Homo sapiens, UniProt P51449).
T2 sequence (P51449 1-497 isoform P51449-2): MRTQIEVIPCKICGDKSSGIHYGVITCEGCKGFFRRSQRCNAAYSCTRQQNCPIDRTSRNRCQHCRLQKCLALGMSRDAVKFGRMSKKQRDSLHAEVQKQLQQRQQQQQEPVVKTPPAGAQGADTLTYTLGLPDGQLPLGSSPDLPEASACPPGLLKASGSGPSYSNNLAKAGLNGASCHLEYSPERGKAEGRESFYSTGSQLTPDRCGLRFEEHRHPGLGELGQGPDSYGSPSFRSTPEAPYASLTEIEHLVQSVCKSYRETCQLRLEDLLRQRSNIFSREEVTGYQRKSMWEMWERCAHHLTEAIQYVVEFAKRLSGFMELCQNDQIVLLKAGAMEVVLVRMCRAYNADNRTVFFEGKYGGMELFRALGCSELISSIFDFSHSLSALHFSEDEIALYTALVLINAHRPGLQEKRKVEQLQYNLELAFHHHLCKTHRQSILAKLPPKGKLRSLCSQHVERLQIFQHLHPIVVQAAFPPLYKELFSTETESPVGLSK
Description: ROR ? t 5×RORE Assay in Jurkat Cells (Assay 2)
Compounds of the present invention were tested for RORγ inverse agonist activity in a cell-based, transcriptional activity assay. […] Luciferase activity in the conditioned supernatants was determined with NanoGlo® assay reagents (Promega, Cat.# N1130).

Ki and IC50 data for 30 compounds are collected here from US9481674B1, “Dihydropyrrolopyridine inhibitors of ROR-gamma” (Vitae Pharmaceuticals, Inc., priority 2016, dated 2016).

Molecules are shown by their SMILES. Where only a bound is given, the exact number is not on record here.

For `CCS(=O)(=O)c1ccc([C@H](CO)NC(=O)c2cnc3c(c2)CN(C[C@@H]2CC[C@@H](C(F)(F)F)OC2)[C@H]3C(C)C)nc1` (single isomer, unassigned) [Compound 1], in assay [1], the Ki (commonly the dissociation constant of the complex between target and ligand, obtained from inhibition or displacement) was under 100 nM. In assay [2], the IC50 (in general, the concentration that gives 50% inhibition) is under 100 nM.
`CCS(=O)(=O)c1ccc([C@H](CO)NC(=O)c2cnc3c(c2)CN(C[C@@H]2CC[C@@H](C(F)(F)F)OC2)[C@H]3C(C)C)cc1` (single isomer, unassigned) [Compound 2]: the Ki in assay [1] was under 100 nM. Also, in assay [2], the IC50 is under 100 nM.
In the case of `CCS(=O)(=O)c1ccc([C@H](CO)NC(=O)c2cnc3c(c2)CN(C[C@H]2CC[C@H](C(F)(F)F)OC2)[C@H]3C(C)C)cc1` (single isomer, unassigned) [Compound 5], the IC50 in assay [3] and in assay [2] was under 100 nM each time. The Ki in assay [1] was under 100 nM.
Take `CC[C@H]1c2ncc(C(=O)N[C@@H](CO)c3ccc(S(=O)(=O)CC)cc3)cc2CN1C[C@H]1CC[C@H](C(F)(F)F)OC1` (single isomer, unassigned) [Compound 10]: the Ki in assay [1] is under 100 nM. Besides, the IC50 in assay [2] is under 100 nM.
Regarding `CC[C@H]1c2ncc(C(=O)N[C@@H](CO)c3ccc(S(=O)(=O)CC)cc3)cc2CN1C[C@@H]1CC[C@@H](C(F)(F)F)OC1` (single isomer, unassigned) [Compound 11], the Ki in assay [1] is under 100 nM.
Consider `CCS(=O)(=O)c1ccc([C@H](CO)NC(=O)c2cnc3c(c2)CN(C[C@@H]2CC[C@@H](C(F)(F)F)CO2)[C@H]3C(C)C)cc1` (single isomer, unassigned) [Compound 14], for which, in assay [1], the Ki is under 100 nM. Also, the IC50 in assay [2] was under 100 nM.
As to `CCS(=O)(=O)c1ccc([C@H](CO)NC(=O)c2cnc3c(c2)CN(C[C@H]2CC[C@H](C(F)(F)F)CO2)[C@H]3C(C)C)cc1` (single isomer, unassigned) [Compound 15], in assay [1], the Ki was under 100 nM.
As to `CCS(=O)(=O)c1ccc([C@H](CO)NC(=O)c2cnc3c(c2)CN(C[C@@H]2CC[C@H](C(F)(F)F)CO2)[C@H]3C(C)C)cc1` (single isomer, unassigned) [Compound 18], in assay [1], the inhibitory constant (Ki) is under 100 nM.
For the compound `CCS(=O)(=O)c1ccc([C@H](CO)NC(=O)c2cnc3c(c2)CN(C[C@H]2CC[C@@H](C(F)(F)F)CO2)[C@H]3C(C)C)cc1` (single isomer, unassigned) [Compound 21], the Ki in assay [1] was under 100 nM.
On to `CCS(=O)(=O)c1ccc([C@H](NC(=O)c2cnc3c(c2)CN(C[C@H]2CC[C@H](C(F)(F)F)CC2)[C@H]3C(C)C)[C@H](C)O)cc1` (single isomer, unassigned) [Compound 39], for which the Ki in assay [1] is under 100 nM. In assay [2], the IC50 lay within 100 to 200 nM.
Consider `CCS(=O)(=O)c1ccc([C@@H](NC(=O)c2cnc3c(c2)CN(C[C@H]2CC[C@H](C(F)(F)F)CC2)[C@H]3C(C)C)[C@@H](C)O)cc1` (single isomer, unassigned) [Compound 42], for which the Ki in assay [1] is under 100 nM. For the same compound, in assay [2], the IC50 was over 200 nM.
Consider `CCS(=O)(=O)c1ccc(C(C)(CO)NC(=O)c2cnc3c(c2)CN(C[C@H]2CC[C@H](C(F)(F)F)CC2)[C@H]3C(C)C)cc1` (stereo partly shown) [Compound 7], for which, in assay [3], the IC50 was 100 to 1000 nM. Moreover, the Ki in assay [1] was under 100 nM.
The like results for `CC(C)[C@H]1c2ncc(C(=O)N[C@@H](CO)c3ccc(S(C)(=O)=O)cc3)cc2CN1C[C@H]1CC[C@@H](C(F)(F)F)CC1` [Compound 8] were, in that order, over 1000 nM and under 100 nM.
For `CCS(=O)(=O)c1ccc(C(C)(CO)NC(=O)c2cnc3c(c2)CN(C[C@H]2CC[C@H](C(F)(F)F)CC2)[C@@H]3C(C)C)cc1` (stereo partly shown) [Compound 9], the Ki in assay [1] lay within 100 to 1000 nM.
In assay [3], `CCS(=O)(=O)c1ccc([C@H](CO)NC(=O)c2cnc3c(c2)CN(CC(F)(F)F)[C@@H]3Cc2ccccc2)cc1` [Compound 19] yielded a half-maximal inhibitory concentration (IC50) of 100 to 1000 nM. Moreover, the Ki in assay [1] was under 100 nM.
The like results for `CCS(=O)(=O)c1ccc([C@H](CO)NC(=O)c2cnc3c(c2)CN(CC(F)(F)F)[C@H]3Cc2ccccc2)cc1` [Compound 22] were, in that order, under 100 nM and under 100 nM.
The like results for `CCS(=O)(=O)c1ccc([C@H](CO)NC(=O)c2cnc3c(c2)CN(C[C@H]2CC[C@H](C(F)(F)F)CC2)C3C(F)(F)F)cc1` (stereo partly shown) [Compound 23] were, in that order, under 100 nM and under 100 nM.
On to `CCS(=O)(=O)c1ccc([C@H](CO)NC(=O)c2cnc3c(c2)CN(C[C@H]2CC[C@H](C(F)(F)F)CC2)[C@H]3C)cc1` [Compound 26], for which the IC50 in assay [3] was 100 to 1000 nM. Also, in assay [1], the Ki was under 100 nM.
In the same order, the values of `CCS(=O)(=O)c1ccc([C@H](CO)NC(=O)c2cnc3c(c2)CN(C[C@H]2CC[C@H](C(F)(F)F)CC2)[C@H]3CC2CCOCC2)cc1` [Compound 27] are under 100 nM and under 100 nM.
Take `CCS(=O)(=O)c1ccc([C@H](CO)NC(=O)c2cnc3c(c2)CN(C[C@H]2CC[C@H](C(F)(F)F)CC2)[C@@H]3C)cc1` [Compound 28]: the Ki in assay [1] is over 1000 nM.
`CCS(=O)(=O)c1ccc([C@H](CO)NC(=O)c2cnc3c(c2)CN(C[C@H]2CC[C@H](C(F)(F)F)CC2)[C@H]3C2CCOCC2)cc1` [Compound 31] had an IC50 in assay [3] of under 100 nM. The inhibition constant (Ki) in assay [1] is under 100 nM.
Take `CCS(=O)(=O)c1ccc([C@H](CO)NC(=O)c2cnc3c(c2)CN(C)[C@H]3Cc2ccccc2)cc1` [Compound 35]: the Ki in assay [1] was in the range of 100 to 1000 nM.
`CCS(=O)(=O)c1ccc([C@H](CO)NC(=O)c2cnc3c(c2)CN(C[C@H]2CC[C@H](C(F)(F)F)CC2)[C@H]3Cc2ccccc2)cc1` [Compound 37]: the IC50 in assay [3] was under 100 nM. The inhibition constant (Ki) in assay [1] was under 100 nM.
For the compound `CCS(=O)(=O)c1ccc([C@H](CO)NC(=O)c2cnc3c(c2)CN(C[C@H]2CC[C@H](C(F)(F)F)CC2)[C@@H]3Cc2ccccc2)cc1` [Compound 40], the inhibition constant Ki in assay [1] was in the range of 100 to 1000 nM.
As to `CC[C@H]1c2ncc(C(=O)N[C@@H](CO)c3ccc(S(=O)(=O)CC)cc3)cc2CN1C[C@H]1CC[C@H](C(F)(F)F)CC1` [Compound 41, (S)-7-ethyl-N—((R)-1-(4-(ethylsulfonyl)phenyl)-2-hydroxyethyl)-6-((trans-4-(trifluoromethyl)cyclohexyl)methyl)-6,7-dihydro-5H-pyrrolo[3,4-b]pyridine-3-carboxamide], the IC50 in assay [2] is under 100 nM.
Consider `CCO[C@H]1CC[C@H](CN2Cc3cc(C(=O)N[C@@H](CO)c4ccc(S(=O)(=O)CC)cc4)cnc3[C@@H]2C(C)C)CC1` [Compound 43], for which the concentration for half-maximal inhibition (IC50) in assay [3] was under 100 nM. For the same compound, the Ki in assay [1] was under 100 nM.
With `CCS(=O)(=O)c1ccc([C@@H](CO)NC(=O)c2cnc3c(c2)CN(C[C@H]2CC[C@H](C(F)(F)F)CC2)[C@H]3C(C)C)nc1` [Compound 44], the IC50 in assay [2] is over 200 nM.
The same measure, in the same setting: then `CCS(=O)(=O)c1ccc([C@H](CO)NC(=O)c2cnc3c(c2)CN(C[C@H]2CC[C@H](C(F)(F)F)CC2)[C@H]3C(C)C)nc1` [Compound 45], with over 200 nM.
For `CCS(=O)(=O)c1ccc([C@H](CO)NC(=O)c2cnc3c(c2)CN(C[C@H]2CC[C@H](C(F)(F)F)CC2)[C@H]3C(C)C)cc1` [Compound 46, (S)—N—((R)-1-(4-(ethylsulfonyl)phenyl)-2-hydroxyethyl)-7-isopropyl-6-((trans-4-(trifluoromethyl)cyclohexyl)methyl)-6,7-dihydro-5H-pyrrolo[3,4-b]pyridine-3-carboxamide], the IC50 in assay [3] and in assay [2] was under 100 nM throughout. In addition, the inhibitory constant (Ki) in assay [1] is under 100 nM.
For `CCS(=O)(=O)c1ccc([C@@H](CO)NC(=O)c2cnc3c(c2)CN(C[C@H]2CC[C@H](C(F)(F)F)CC2)[C@H]3C(C)C)cc1` [Compound 47], the IC50 in assay [3] was under 100 nM; in assay [2] it was over 200 nM. Also, the Ki in assay [1] was under 100 nM.
